Experimental data as given in US10501436B2, “Compounds and methods of use” (Medivation Technologies LLC, priority 2014, dated 2019).
Each block holds one compound with its values, some of them ahead of it.

Tests used:
[1] = system: p-SMAD2; assay: p-SMAD2 inhibition, Western Blot Analysis in MDA-MB-231 cells treated with TGFβ; assay type: cell-based; conditions: Homo sapiens, TGFβ 2 ng/mL, samples run in triplicate; for inhibition at 0.1 µM: 0.1 μM compound, read-out: Average p-SMAD2 inhibition @ 0.1 μM (% Inh); for inhibition at 0.5 µM: 0.5 μM compound, read-out: Average p-SMAD2 inhibition @ 0.5 μM (% Inh)
[2] = Pharmacokinetics and bioavailability in male mice after a single dose; assay type: in vivo
[3] = Plasma and brain concentrations at 0.5 and 1 h; assay type: in vivo, mice; conditions: PO
[4] = target: ALK2 (ACVR1) (Homo sapiens (Human), UniProt Q04771); assay: In vitro kinase assay (33P ATP), ALK2; assay type: biochemical; conditions: 10 μM ATP; read-out: Inhibition of ALK2 (IC50 μM)
ALK2 (ACVR1), sequence (Q04771 21-509): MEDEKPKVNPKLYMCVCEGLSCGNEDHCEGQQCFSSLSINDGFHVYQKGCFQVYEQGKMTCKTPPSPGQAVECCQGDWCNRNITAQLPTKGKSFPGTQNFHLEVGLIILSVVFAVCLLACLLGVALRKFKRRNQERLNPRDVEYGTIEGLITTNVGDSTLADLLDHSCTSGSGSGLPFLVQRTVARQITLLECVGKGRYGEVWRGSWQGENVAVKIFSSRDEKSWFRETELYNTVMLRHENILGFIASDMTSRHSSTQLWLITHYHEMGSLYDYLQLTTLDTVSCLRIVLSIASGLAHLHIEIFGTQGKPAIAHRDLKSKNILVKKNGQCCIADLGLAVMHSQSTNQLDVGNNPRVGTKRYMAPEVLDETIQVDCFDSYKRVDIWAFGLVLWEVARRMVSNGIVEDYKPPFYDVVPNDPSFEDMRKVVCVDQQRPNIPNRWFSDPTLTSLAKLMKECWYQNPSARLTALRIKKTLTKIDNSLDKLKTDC

SMILES: CC(C)c1cnc(-c2cc(Cl)ccc2F)cc1Nc1n[nH]cc1C(=O)NC[C@H](C)O (single isomer, unassigned) [Compound 21a, 3-[[2-(5-chloro-2-fluoro-phenyl)-5-isopropyl-4-pyridyl]amino]-N-(2-hydroxypropyl)-1H-pyrazole-4-carboxamide]
inhibition at 0.1 µM [1]: 4.67%
inhibition at 0.5 µM [1]: 7.67%

SMILES: C=Cc1cnc(-c2cc(Cl)ccc2F)cc1Nc1ccncc1C(=O)NC[C@H](C)O [Compound 10a, (S)-4-(2-(5-chloro-2-fluorophenyl)-5-vinylpyridin-4-ylamino)-N-(2-hydroxypropyl) nicotinamide]
inhibition at 0.5 µM [1]: 64.3%

AUClast ([2]; Intravenous, 2 mg/kg): 2.56 µM·h
CL ([2]; Intravenous, 2 mg/kg): 12.8 mL/min/kg
AUClast ([2]; Oral, 10 mg/kg): 10.5 µM·h
SMILES: C=C(C)c1cnc(-c2cc(Cl)ccc2F)cc1Nc1ccncc1C(=O)NCC(C)O (single isomer, unassigned) [Compound 3a]

SMILES: CC(C)c1cnc(-c2cc(Cl)ccc2F)cc1Nc1ccncc1CNC[C@H](C)O [Compound 5a, (S)-1-((4-(2-(5-chloro-2-fluorophenyl)-5-isopropylpyridin-4-ylamino)pyridin-3-yl)methylamino)propan-2-ol]
inhibition at 0.1 µM [1]: 14.3%
inhibition at 0.5 µM [1]: 41.3%

Brain Concentration (μM) ([3]; 0.5 h): BLQ
Brain Concentration (μM) ([3]; 1 h): BLQ
SMILES: CC(C)c1cnc(-c2cc(Cl)ccc2F)cc1Nc1ccncc1C(=O)NCCN [Compound 19, N-(2-aminoethyl)-4-[[2-(5-chloro-2-fluoro-phenyl)-5-isopropyl-4-pyridyl]amino]pyridine-3-carboxamide]

SMILES: C=C(C)c1cnc(-c2cc(Cl)ccc2F)cc1Nc1n[nH]cc1C(=O)NC[C@H](C)O [Compound 20a, (S)-3-[[2-(5-chloro-2-fluoro-phenyl)-5-isopropenyl-4-pyridyl]amino]-N-(2-hydroxypropyl)-1H-pyrazole-4-carboxamide]
inhibition at 0.1 µM [1]: 0%
inhibition at 0.5 µM [1]: 3.67%

SMILES: COc1cnc(-c2cc(Cl)ccc2F)cc1Nc1ccncc1C(=O)NCC(C)O (single isomer, unassigned) [Compound 13a]
IC50 [4]: > 100 µM

SMILES: C=C(C)c1cnc(-c2cc(Cl)ccc2F)cc1Nc1ccncc1C(=O)N[C@H](C)CO [Compound 7b, (2R)-4-[[2-(5-chloro-2-fluoro-phenyl)-5-isopropenyl-4-pyridyl]amino]-N-(2-hydroxy-1-methyl-ethyl)pyridine-3-carboxamide]
IC50 [4]: > 100 µM

AUClast ([2]; Intravenous, 2 mg/kg): 1.11 µM·h
CL ([2]; Intravenous, 2 mg/kg): 66 mL/min/kg
AUClast ([2]; Oral, 10 mg/kg): 0.907 µM·h
SMILES: C=C(C)c1c(Nc2ccncc2C(=O)NCC(C)O)cc(-c2cc(Cl)ccc2F)nc1N (single isomer, unassigned) [Compound 23a]
